From ChEMBL document CHEMBL1201862, “PubChem BioAssay data set” (2004)
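Following 48 hours of exposure in 96-well plates, responses at five concentrations were used to interpolate endpoints linearly. Abbreviation: GI50, concentration required for 50% inhibition of growth.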 Active and inactive are the calls of the source. Cut-off read from the data, not from the text of the source: active = GI50 up to about 1.1 µM and inactive = higher.

How the values were obtained:
Assay in all cases: growth of human tumour cells (NCI), 48 h
[1] = test system: OVCAR-8
[2] = test system: UACC-62
[3] = test system: SR
[4] = test system: LOX IMVI
[5] = test system: MCF7
[6] = test system: M14
[7] = test system: A549
[8] = test system: RXF 393
[9] = test system: SF-268
[10] = test system: HOP-92
[11] = test system: NCI-H460
[12] = test system: MDA-N
[13] = test system: UO-31
[14] = test system: 786-0
[15] = test system: Hs-578T
[16] = test system: SW-620
[17] = test system: SF-539
[18] = test system: NCI/ADR-RES
[19] = test system: SNB-75
[20] = test system: DU-145
[21] = test system: PC-3
[22] = test system: BT-549
[23] = test system: NCI-H226
[24] = test system: SNB-19
[25] = test system: RPMI-8226
[26] = test system: MDA-MB-231
[27] = test system: SF-295
[28] = test system: TK-10
[29] = test system: SK-MEL-28
[30] = test system: SN12C
[31] = test system: A498
[32] = test system: EKVX
[33] = test system: NCI-H23
[34] = test system: KM12
[35] = test system: CCRF-CEM
[36] = test system: OVCAR-3
[37] = test system: HOP-62
[38] = test system: HL-60
[39] = test system: U-251
[40] = test system: CAKI-1
[41] = test system: HCT-116
[42] = test system: Malme-3M
[43] = test system: MDA-MB-435
[44] = test system: HT-29
[45] = test system: HCT-15
[46] = test system: SK-OV-3
[47] = test system: K562
[48] = test system: T47D
[49] = test system: IGROV-1
[50] = test system: OVCAR-4
[51] = test system: UACC-257
[52] = test system: MOLT-4
[53] = test system: COLO 205
[54] = test system: NCI-H522
[55] = test system: HCC 2998
[56] = test system: OVCAR-5
[57] = test system: SK-MEL-5
[58] = test system: SK-MEL-2

For `COc1ccc(C2SCC(=O)N2c2ccc(-c3ccc(-n4c(-c5ccccc5)nc5ccccc5c4=O)cc3)cc2)cc1OC` (configuration not stated), which GI50 [1] is on record?
Its GI50 is 27.5 µM (inactive).

And the GI50 [2]?
Its GI50 is 29.2 µM (inactive).

And the GI50 [3]?
Its GI50 is 26.2 µM (inactive).

And the GI50 [4]?
The GI50 was 17.8 µM (inactive).

And the GI50 [5]?
Its GI50 is 27.7 µM (inactive).

And the GI50 [6]?
Its GI50 is 52.7 µM (inactive).

And the GI50 [7]?
The GI50 was 27.9 µM (inactive).

And the GI50 [8]?
Its GI50 is > 100 µM (inactive).

And the GI50 [9]?
Its GI50 is 43.5 µM (inactive).

And the GI50 [10]?
Its GI50 is > 100 µM (inactive).

What about the GI50 [11] of the same molecule?
The GI50 was 32.8 µM (inactive).

And the GI50 [12]?
The GI50 was 59.7 µM (inactive).

And the GI50 [13]?
Its GI50 is 44.2 µM (inactive).

What about the GI50 [14] of the same molecule?
The GI50 was 44.4 µM (inactive).

What about the GI50 [15] of the same molecule?
The GI50 was 69.5 µM (inactive).

And the GI50 [16]?
Its GI50 is 73.5 µM (inactive).

And the GI50 [17]?
Its GI50 is 30.5 µM (inactive).

And the GI50 [18]?
Its GI50 is 61.2 µM (inactive).

And the GI50 [19]?
The GI50 was 64.1 µM (inactive).

What about the GI50 [20] of the same molecule?
Its GI50 is 98.2 µM (inactive).

And the GI50 [21]?
The GI50 was 42 µM (inactive).

And the GI50 [22]?
The GI50 was 18.5 µM (inactive).

What about the GI50 [23] of the same molecule?
The GI50 was 52.7 µM (inactive).

What about the GI50 [24] of the same molecule?
Its GI50 is 84.5 µM (inactive).

What about the GI50 [25] of the same molecule?
Its GI50 is 31.7 µM (inactive).

And the GI50 [26]?
Its GI50 is 25.8 µM (inactive).

What about the GI50 [27] of the same molecule?
Its GI50 is 16.8 µM (inactive).

And the GI50 [28]?
The GI50 was 25.2 µM (inactive).

What about the GI50 [29] of the same molecule?
The GI50 was 57 µM (inactive).

What about the GI50 [30] of the same molecule?
The GI50 was > 100 µM (inactive).

And the GI50 [31]?
The GI50 was > 100 µM (inactive).

And the GI50 [32]?
Its GI50 is 81.8 µM (inactive).

And the GI50 [33]?
Its GI50 is > 100 µM (inactive).

What about the GI50 [34] of the same molecule?
Its GI50 is 7.85 µM (inactive).

What about the GI50 [35] of the same molecule?
Its GI50 is 20 µM (inactive).

And the GI50 [36]?
The GI50 was 26.5 µM (inactive).

And the GI50 [37]?
Its GI50 is 18 µM (inactive).

And the GI50 [38]?
The GI50 was 30.8 µM (inactive).

What about the GI50 [39] of the same molecule?
The GI50 was 43.8 µM (inactive).

And the GI50 [40]?
The GI50 was 88.5 µM (inactive).

And the GI50 [41]?
The GI50 was 67.8 µM (inactive).

And the GI50 [42]?
The GI50 was 81.8 µM (inactive).

And the GI50 [43]?
The GI50 was 33.3 µM (inactive).

What about the GI50 [44] of the same molecule?
Its GI50 is 45.2 µM (inactive).

And the GI50 [45]?
The GI50 was greater than 100 µM.

What about the GI50 [46] of the same molecule?
The GI50 was 40.3 µM (inactive).

And the GI50 [47]?
The GI50 was 23.3 µM (inactive).

What about the GI50 [48] of the same molecule?
The GI50 was 22.4 µM (inactive).

What about the GI50 [49] of the same molecule?
Its GI50 is 37.7 µM (inactive).

What about the GI50 [50] of the same molecule?
Its GI50 is > 100 µM (inactive).

What about the GI50 [51] of the same molecule?
The GI50 was 61.5 µM (inactive).

What about the GI50 [52] of the same molecule?
The GI50 was 22.4 µM (inactive).

What about the GI50 [53] of the same molecule?
Its GI50 is 18.4 µM (inactive).

`CSc1c(C(N)=S)c(N)nn1-c1ccccc1` was tested. Which GI50 [1] did it give?
The GI50 was > 100 µM (inactive).

What about the GI50 [2] of the same molecule?
The GI50 was > 100 µM (inactive).

What about the GI50 [54] of the same molecule?
The GI50 was > 100 µM (inactive).

And the GI50 [3]?
The GI50 was > 100 µM (inactive).

And the GI50 [4]?
The GI50 was > 100 µM (inactive).

What about the GI50 [5] of the same molecule?
The GI50 was > 100 µM (inactive).

And the GI50 [6]?
Its GI50 is > 100 µM (inactive).

What about the GI50 [55] of the same molecule?
The GI50 was > 100 µM (inactive).

What about the GI50 [7] of the same molecule?
The GI50 was > 100 µM (inactive).

And the GI50 [8]?
Its GI50 is > 100 µM (inactive).

What about the GI50 [9] of the same molecule?
The GI50 was > 100 µM (inactive).

And the GI50 [10]?
Its GI50 is > 100 µM (inactive).

What about the GI50 [11] of the same molecule?
The GI50 was > 100 µM (inactive).

What about the GI50 [13] of the same molecule?
The GI50 was > 100 µM (inactive).

And the GI50 [14]?
Its GI50 is > 100 µM (inactive).

What about the GI50 [56] of the same molecule?
The GI50 was > 100 µM (inactive).

What about the GI50 [15] of the same molecule?
Its GI50 is > 100 µM (inactive).

And the GI50 [16]?
The GI50 was > 100 µM (inactive).

And the GI50 [17]?
Its GI50 is > 100 µM (inactive).

And the GI50 [18]?
The GI50 was > 100 µM (inactive).

What about the GI50 [19] of the same molecule?
Its GI50 is > 100 µM (inactive).

What about the GI50 [20] of the same molecule?
Its GI50 is > 100 µM (inactive).

And the GI50 [21]?
Its GI50 is > 100 µM (inactive).

And the GI50 [22]?
Its GI50 is > 100 µM (inactive).

What about the GI50 [23] of the same molecule?
The GI50 was > 100 µM (inactive).

And the GI50 [24]?
The GI50 was > 100 µM (inactive).

And the GI50 [25]?
Its GI50 is > 100 µM (inactive).

And the GI50 [26]?
Its GI50 is > 100 µM (inactive).

And the GI50 [28]?
The GI50 was > 100 µM (inactive).

And the GI50 [29]?
Its GI50 is > 100 µM (inactive).

And the GI50 [30]?
The GI50 was > 100 µM (inactive).

What about the GI50 [31] of the same molecule?
The GI50 was > 100 µM (inactive).

What about the GI50 [32] of the same molecule?
Its GI50 is > 100 µM (inactive).

And the GI50 [57]?
Its GI50 is > 100 µM (inactive).

What about the GI50 [33] of the same molecule?
Its GI50 is > 100 µM (inactive).

And the GI50 [34]?
The GI50 was > 100 µM (inactive).

And the GI50 [36]?
Its GI50 is > 100 µM (inactive).

What about the GI50 [38] of the same molecule?
The GI50 was > 100 µM (inactive).

What about the GI50 [39] of the same molecule?
Its GI50 is > 100 µM (inactive).

And the GI50 [40]?
Its GI50 is > 100 µM (inactive).

And the GI50 [41]?
The GI50 was > 100 µM (inactive).

What about the GI50 [42] of the same molecule?
The GI50 was > 100 µM (inactive).

What about the GI50 [43] of the same molecule?
Its GI50 is > 100 µM (inactive).

And the GI50 [44]?
Its GI50 is > 100 µM (inactive).

And the GI50 [45]?
The GI50 was greater than 100 µM.

What about the GI50 [46] of the same molecule?
The GI50 was > 100 µM (inactive).

And the GI50 [47]?
Its GI50 is > 100 µM (inactive).

What about the GI50 [58] of the same molecule?
Its GI50 is > 100 µM (inactive).

And the GI50 [48]?
Its GI50 is > 100 µM (inactive).

And the GI50 [49]?
Its GI50 is > 100 µM (inactive).

And the GI50 [50]?
The GI50 was > 100 µM (inactive).

What about the GI50 [51] of the same molecule?
The GI50 was > 100 µM (inactive).

What about the GI50 [52] of the same molecule?
Its GI50 is > 100 µM (inactive).

And the GI50 [53]?
The GI50 was > 100 µM (inactive).
